In patent US10106501B2, “Nuclear receptor modulators” (AbbVie Inc., priority 2015, dated 2018):

These compounds were tested against T1, chimeric human RORγ-Gal4 receptor (Homo sapiens, UniProt P51449) (assay: transient transactivation assay (RORγ-Gal4 luciferase reporter)). Conditions: Cos-7 cells transfected with RORγ-Gal4 and 5Gal4 pGL3 TK Luc reporter; overnight incubation; T0901317 at 10^-5 M as reference; read-out: IC50.
T1 sequence (P51449 269-508 limits assumed): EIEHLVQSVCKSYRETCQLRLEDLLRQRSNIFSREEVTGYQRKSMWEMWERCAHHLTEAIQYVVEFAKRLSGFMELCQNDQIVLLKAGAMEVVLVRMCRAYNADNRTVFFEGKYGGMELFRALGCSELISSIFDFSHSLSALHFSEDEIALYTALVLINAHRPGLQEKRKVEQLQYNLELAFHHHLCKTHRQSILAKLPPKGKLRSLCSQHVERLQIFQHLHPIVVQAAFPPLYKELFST
Assay type: cell-based

For `Cc1cc(C(F)(F)F)cc2cnn(Cc3c(Cl)ccc(C(=O)N4CCC(CC(=O)O)CC4)c3Cl)c12` [EC, 2-(1-(2,4-dichloro-3-((7-methyl-5-(trifluoromethyl)-1H-indazol-1-yl)methyl)benzoyl)piperidin-4-yl)acetic acid], which IC50 is on record?
The IC50 was under 100 nM.

`Cc1ccc(C(=O)N2CCOCC2)c(C)c1Cc1cc2c(C)cc(C(F)(F)F)cc2n1C` [G, (3-((1,4-dimethyl-6-(trifluoromethyl)-1H-indol-2-yl)methyl)-2,4-dimethylphenyl)(morpholino)methanone] was tested. Which IC50 did it give?
The IC50 was under 100 nM.

For `Cn1c(Cc2c(Cl)ccc(C(=O)N3CC[C@@H](F)[C@H](O)C3)c2Cl)cc2ccc(C(F)(F)F)cc21` [Example L-5], which IC50 is on record?
Its IC50 is 500 to 1000 nM.

For `COC[C@@H]1CN(C(=O)c2ccc(Cl)c(Cc3cc4c(C)cc(C(F)(F)F)cc4n3C)c2Cl)C[C@H]1C(=O)O` [Example B-15], which IC50 is on record?
The IC50 was 1000 to 10000 nM.

How did the IC50 turn out when `Cc1cc(C(F)(F)F)nc2c1cc(C(=O)c1c(Cl)ccc(C(=O)N3CCC(C#N)CC3)c1Cl)n2C` [Example FV, 1-(2,4-dichloro-3-(1,4-dimethyl-6-(trifluoromethyl)-1H-pyrrolo[2,3-b]pyridine-2-carbonyl)benzoyl)piperidine-4-carbonitrile] was run?
The IC50 was under 100 nM.

Which IC50 does the source give for `Cn1c(Cc2c(Cl)ccc(C(=O)N3CCOCC3)c2Cl)cc2c(Cl)cc(C#N)cc21` [CJ, 4-chloro-2-(2,6-dichloro-3-(morpholine-4-carbonyl)benzyl)-1-methyl-1H-indole-6-carbonitrile] here?
The IC50 was 1000 to 10000 nM.

How did the IC50 turn out when `Cn1c(Cc2c(Cl)ccc(C(=O)N3CCC(CO)CC3)c2Cl)cc2ccc(C(F)(F)F)cc21` [Example L-2] was run?
Its IC50 is 100 to 500 nM.

Which IC50 does the source give for `Cn1c(Cc2c(Cl)ccc(C(=O)N3CCOCC3)c2Cl)nc2c(C(F)(F)F)cc(C#N)cc21` [CF, 2-(2,6-dichloro-3-(morpholine-4-carbonyl)benzyl)-1-methyl-4-(trifluoromethyl)-1H-benzo[d]imidazole-6-carbonitrile] here?
Its IC50 is 500 to 1000 nM.

For `CC(=O)Nc1cc(C)c2cc(Cc3c(Cl)ccc(C(=O)N4CCOCC4)c3Cl)n(C)c2c1` [Example FK, N-(2-(2,6-dichloro-3-(morpholine-4-carbonyl)benzyl)-1,4-dimethyl-1H-indol-6-yl)acetamide], which IC50 is on record?
Its IC50 is under 100 nM.

For `Cc1cc(C(F)(F)F)cc2c1cc(Cc1c(Cl)ccc(C(=O)N3CCN(C(C)C(=O)O)CC3)c1Cl)n2C` (centres unmarked) [Example U, 2-(4-(2,4-dichloro-3-((1,4-dimethyl-6-(trifluoromethyl)-1H-indol-2-yl)methyl)benzoyl)piperazin-1-yl)propanoic acid], which IC50 is on record?
The IC50 was under 100 nM.

How did the IC50 turn out when `Cn1c(Cc2c(Cl)ccc(C(=O)N3CCC(CC(=O)O)CC3)c2Cl)cc2c(Cl)cc(Cl)cc21` [FA, 2-(1-(2,4-dichloro-3-((4,6-dichloro-1-methyl-1H-indol-2-yl)methyl)benzoyl)piperidin-4-yl)acetic acid] was run?
The IC50 was under 100 nM.

For `Cc1cc(C(F)(F)F)cc2c1c(Cc1c(Cl)ccc(C(=O)N3CCC(C(=O)O)CC3)c1Cl)cn2C` [Example FQ, 1-(2,4-dichloro-3-((1,4-dimethyl-6-(trifluoromethyl)-1H-indol-3-yl)methyl)benzoyl)piperidine-4-carboxylic acid], which IC50 is on record?
The IC50 was under 100 nM.

With `O=C(O)CC1CCN(C(=O)c2ccc(Cl)c(Cn3ccc4cc(C(F)(F)F)cc(F)c43)c2Cl)CC1` [EP, 2-(1-(2,4-dichloro-3-((7-fluoro-5-(trifluoromethyl)-1H-indol-1-yl)methyl)benzoyl)piperidin-4-yl)acetic acid] as the compound, how does the IC50 read?
The IC50 was under 100 nM.

How did the IC50 turn out when `Cc1cc(C(F)(F)F)cc2c1nc(Cc1c(Cl)ccc(C(=O)N3CCC(CC(C)(C)O)CC3)c1Cl)n2C` [BJ-14] was run?
The IC50 was 100 to 500 nM.

How did the IC50 turn out when `Cc1cc(C#N)cc2c1cc(Cc1c(Cl)ccc(C(=O)N3CCC(C(C)(C)CO)CC3)c1Cl)n2C` [AA-8] was run?
Its IC50 is under 100 nM.

For `Cn1c(Cc2c(C3CC3)ccc(C(=O)N3CCC(CC(=O)O)CC3)c2Cl)cc2ccc(OC(F)(F)F)cc21` [Example FL, 2-(1-(2-chloro-4-cyclopropyl-3-((1-methyl-6-(trifluoromethoxy)-1H-indol-2-yl)methyl)benzoyl)piperidin-4-yl)acetic acid], which IC50 is on record?
Its IC50 is under 100 nM.

How did the IC50 turn out when `Cc1cc(C(F)(F)F)cc2c1cc(Cc1c(Cl)ccc(C(=O)N3CC(C)(C(=O)O)C3)c1Cl)n2C` [Example B-5] was run?
The IC50 was 100 to 500 nM.

`Cc1cc(C(F)(F)F)cc2c1cc(Cc1c(Cl)ccc(C(=O)N3CCC(CC(=O)O)C(C)C3)c1Cl)n2C` (centres unmarked) [Example B-21] was tested. Which IC50 did it give?
Its IC50 is under 100 nM.

With `Cc1cc(C(F)(F)F)cc2cn(Cc3c(Cl)ccc(C(=O)N4CCC(CC(=O)O)CC4)c3Cl)nc12` [ED, 2-(1-(2,4-dichloro-3-((7-methyl-5-(trifluoromethyl)-2H-indazol-2-yl)methyl)benzoyl)piperidin-4-yl)acetic acid] as the compound, how does the IC50 read?
Its IC50 is under 100 nM.

`Cc1nc(C(F)(F)F)cc2c1cc(Cc1c(Cl)ccc(C(=O)N3CCN(C4COC4)CC3)c1Cl)n2C` [Example FJ, (2,4-dichloro-3-((1,4-dimethyl-6-(trifluoromethyl)-1H-pyrrolo[3,2-c]pyridin-2-yl)methyl)phenyl)(4-(oxetan-3-yl)piperazin-1-yl)methanone] was tested. Which IC50 did it give?
Its IC50 is under 100 nM.

How did the IC50 turn out when `Cc1cc(C#N)cc2c1cc(Cc1c(Cl)ccc(C(=O)NC3CCOCC3)c1Cl)n2C` [AA-23] was run?
The IC50 was 500 to 1000 nM.

How did the IC50 turn out when `CC(C)c1ccc2c(ccn2Cc2c(Cl)ccc(C(=O)N3CCC(CC(=O)O)CC3)c2Cl)c1` [EI-1] was run?
The IC50 was under 100 nM.

With `Cc1cc(C#N)nc2c1cc(Cc1c(Cl)ccc(C(=O)N3CCC(O)CC3)c1Cl)n2C` [CL-1] as the compound, how does the IC50 read?
The IC50 was under 100 nM.

Which IC50 does the source give for `CNC(=O)c1cc(C)c2cc(Cc3c(Cl)ccc(C(=O)N4CCOCC4)c3Cl)n(C)c2c1` [Example FP, 2-[[2,6-dichloro-3-(morpholine-4-carbonyl)phenyl]methyl]-N,1,4-trimethyl-indole-6-carboxamide] here?
Its IC50 is under 100 nM.

Which IC50 does the source give for `Cc1cc(C(F)(F)F)nc2c1cc(C(=O)c1c(Cl)ccc(C(=O)N3CCC(O)CC3)c1Cl)n2C` [Example FZ, (2,4-dichloro-3-(1,4-dimethyl-6-(trifluoromethyl)-1H-pyrrolo[2,3-b]pyridine-2-carbonyl)phenyl)(4-hydroxypiperidin-1-yl)methanone] here?
Its IC50 is under 100 nM.

How did the IC50 turn out when `Cc1cc(C(F)(F)F)cc2c1cc(Cc1c(Cl)ccc(C(=O)N3CCC(CC(=O)O)C3)c1Cl)n2C` (centres unmarked) [Example B-6] was run?
The IC50 was under 100 nM.

How did the IC50 turn out when `Cc1cc(OC(F)(F)F)cc2c1cc(Cc1c(Cl)ccc(C(=O)N3CCC(CC(=O)O)CC3)c1Cl)n2C` [DP, 2-(1-(2,4-dichloro-3-((1,4-dimethyl-6-(trifluoromethoxy)-1H-indol-2-yl)methyl)benzoyl)piperidin-4-yl)acetic acid] was run?
Its IC50 is under 100 nM.

Which IC50 does the source give for `Cn1c(Cc2c(Cl)ccc(C(=O)N3CCC(CC(=O)O)CC3)c2Cl)cc2c(F)cc(C3CC3)cc21` [Example FM, 2-(1-(2,4-dichloro-3-((6-cyclopropyl-4-fluoro-1-methyl-1H-indol-2-yl)methyl)benzoyl)piperidin-4-yl)acetic acid] here?
Its IC50 is under 100 nM.

`Cc1cc(C#N)cc2c1nc(Cc1c(Cl)ccc(C(=O)N3CCC(N(C)C)CC3)c1Cl)n2C` [BN-14] was tested. Which IC50 did it give?
Its IC50 is 1000 to 10000 nM.

How did the IC50 turn out when `Cc1cc(C(F)(F)F)cc2c1cc(Cc1c(Cl)ccc(C(=O)N3CCC(C(=O)O)C3)c1Cl)n2C` (centres unmarked) [Example B-3] was run?
The IC50 was 100 to 500 nM.

How did the IC50 turn out when `Cc1cc(C(F)(F)F)cc2c1nc(Cc1c(Cl)ccc(CN3CCCC(O)C3)c1Cl)n2C` (centres unmarked) [BW-5] was run?
Its IC50 is 100 to 500 nM.

`Cc1cc(C(F)(F)F)cn2c(C)c(Cc3c(Cl)ccc(C(=O)N4CCC(N(C)C)CC4)c3Cl)nc12` [CT-5] was tested. Which IC50 did it give?
Its IC50 is 500 to 1000 nM.

`Cc1cc(C(F)(F)F)cc2c1cc(Cc1c(Cl)ccc(C(=O)N3CCC(C(=O)O)C(F)(F)C3)c1Cl)n2C` (centres unmarked) [Example AZ, 1-(2,4-dichloro-3-((1,4-dimethyl-6-(trifluoromethyl)-1H-indol-2-yl)methyl)benzoyl)-3,3-difluoropiperidine-4-carboxylic acid] was tested. Which IC50 did it give?
The IC50 was under 100 nM.

For `Cc1cn(C(=O)c2c(Cl)ccc(C(=O)N3CCC(CC(=O)O)CC3)c2Cl)c2c(C)nc(C(F)(F)F)cc12` [EV, 2-(1-(2,4-dichloro-3-(3,7-dimethyl-5-(trifluoromethyl)-1H-pyrrolo[2,3-c]pyridine-1-carbonyl)benzoyl)piperidin-4-yl)acetic acid], which IC50 is on record?
Its IC50 is under 100 nM.

Which IC50 does the source give for `Cc1cc(C#N)cc2c1cc(Cc1c(Cl)ccc(C(=O)N3CC4(COC4)C3)c1Cl)n2C` [AA-26] here?
The IC50 was 100 to 500 nM.

`Cc1cc(C(F)(F)F)cc2c1nc(Cc1c(Cl)ccc(C(=O)N3CCN(C(C)C)CC3)c1Cl)n2C` [BJ-40] was tested. Which IC50 did it give?
The IC50 was 100 to 500 nM.

How did the IC50 turn out when `Cc1cc(C(F)(F)F)cc2c1cc(Cc1c(Cl)ccc(C(=O)N3CCC(C(O)C(=O)O)CC3)c1Cl)n2C` (centres unmarked) [Example B-20] was run?
The IC50 was under 100 nM.

For `COCC1CCN(Cc2ccc(Cl)c(Cc3nc4c(C)cc(C(F)(F)F)cc4n3C)c2Cl)CC1` [BW-3], which IC50 is on record?
Its IC50 is 100 to 500 nM.

`CNC(=O)[C@@H]1CCCN1C(=O)c1ccc(Cl)c(Cc2cc3c(C)cc(C#N)cc3n2C)c1Cl` [AA-32] was tested. Which IC50 did it give?
The IC50 was 100 to 500 nM.

With `Cc1ncc(C(=O)N2CCC(CC(=O)O)CC2)c(C)c1Cc1cc2c(C)cc(C(F)(F)F)cc2n1C` [Example BC, 2-(1-(5-((1,4-dimethyl-6-(trifluoromethyl)-1H-indol-2-yl)methyl)-4,6-dimethylnicotinoyl)piperidin-4-yl)acetic acid] as the compound, how does the IC50 read?
The IC50 was 100 to 500 nM.

`Cc1cc(OC(F)(F)F)cc2c1c(Cc1c(Cl)ccc(C(=O)N3CCC(C(=O)O)CC3)c1Cl)cn2C` [DU, 1-[2,4-dichloro-3-[[1,4-dimethyl-6-(trifluoromethoxy)-1H-indol-3-yl]methyl]benzoyl]piperidine-4-carboxylic acid] was tested. Which IC50 did it give?
The IC50 was under 100 nM.

`Cc1cc(C(F)(F)F)cc2c1cc(Cc1c(Cl)ccc(C(=O)N3CCC(CC(=O)O)CC3)c1Cl)n2C` [Example B-7] was tested. Which IC50 did it give?
The IC50 was under 100 nM.

How did the IC50 turn out when `Cc1cc(C(F)(F)F)cc2c1cc(Cc1c(Cl)ccc(C(=O)N3CC4(CC(C(=O)O)C4)C3)c1Cl)n2C` [Example B-18] was run?
Its IC50 is under 100 nM.

Same assay, conditions: read-out: IC50

For `Cc1cc(C(F)(F)F)nc2c1cc(Cc1c(Cl)cnc(C(=O)N3CCOCC3)c1Cl)n2C` [Example GH, (3,5-dichloro-4-((1,4-dimethyl-6-(trifluoromethyl)-1H-pyrrolo[2,3-b]pyridin-2-yl)methyl)pyridin-2-yl)(morpholino)methanone], which IC50 is on record?
Its IC50 is under 100 nM.
